From PubChem BioAssay AID2060625 (Molecular Pharmacology Branch, DTP, NCI, 2025)

System: 186277-243-T-J2-PDC spheroids with HUVEC/MSC, viability
Assay: Anticancer human tumor 186277-243-T-J2-PDC patient-derived colon adenocarcinoma cell line growth inhibition [CLK]
Conditions: for IC50: curve of first compound; for viability, T/C: stronger effect = lower value
Source text: A high-throughput screen of multi-cell type tumor spheroids was designed to identify active combinations of […] and targeted small molecules. Complex spheroids include a stromal component modeled by human endothelial cells (HUVEC) and fibroblasts modeled by human mesenchymal stem cells (MSCs). The concentration ranges selected for each drug and investigational agent were based upon clinically achievable concentrations if the clinical Cmax of the agent was known.
Compounds. The drugs and investigational agents: cirtuvivint (SM08502; NSC835563), CC-671 (NSC850746), vemurafenib (NSC761431), tapotoclax (NSC804041), sotorasib (NSC818433), adagrasib (NSC831453), MRTX-1133 (NSC836407), BAY2416964 (NSC825713), copanlisib (NSC816437), inavolisib (NSC800729), abemaciclib (NSC768073), osimertinib (NSC779217), entinostat (NSC756642), eltanexor (KPT-8602, NSC794443), venetoclax (NSC766270), ceralasertib (NSC777638), bortezomib (NSC756655), olaparib (NSC753686), talazoparib (NSC767125), alisertib (NSC759677), peposertib (NSC802822), gemcitabine (NSC613327), 5-fluorouracil (NSC19893), SN-38 (NSC673596), oxaliplatin (NSC266046), paclitaxel (NSC125973), and doxorubicin (NSC123127), were obtained from the National Cancer Institute (NCI) Developmental Therapeutics Program Chemical Repository. The FDA-approved anticancer drug set is available from the Developmental Therapeutics Program at https://dtp.cancer.gov/organization/dscb/obtaining/available plates.htm. […] The stock solutions were prepared in dimethyl sulfoxide (DMSO, Sigma-Aldrich, St. Louis, MO, cat. D2650), except for the platinum complexes which were prepared in saline (Quality Biological, Gaithersburg, MD, cat. 114-055-101), at 800-fold the tested concentration and stored at -70 degrees C prior to their use. All drugs and investigational agents were tested over a range starting from a high concentration at or near the clinical Cmax and decreasing in half-log increments. If the clinical Cmax for an agent had not been determined, the highest concentration tested was 10 microM.
Cell Culture. All cells were maintained in an incubator at 37 degrees C and 5% CO2 with 95% humidity. The PDC lines were cultured according to standard operating procedures established by the NCI PDMR. Briefly, all PDCs were thawed and cultured in Matrigel-coated flasks prepared with a working solution of 1X Ham's F-12 nutrient mix, without supplementation (Invitrogen, Waltham, MA, cat. 11765054), 100 U/mL penicillin-streptomycin (Invitrogen, cat. 15140122), and 2.5% Matrigel (Corning Inc., Corning, NY, cat. 354248) for the first three passages. The 947758-054-R-J2-PDC line was cultured in 6B/Colon 1A media, which includes advanced DMEM/F-12 (Thermo Fisher Scientific, cat. 12634028), 10 mM HEPES (Thermo Fisher Scientific, cat. 15630080), 1X GlutaMAX supplement (Thermo Fisher Scientific, cat. 35050061), 0.1 mg/mL primocin (InvivoGen, cat. ant-pm-2), 10% defined fetal bovine serum, heat inactivated (HyClone Laboratories Inc., cat. SH30070.03HI), 1.25 mM N-Acetyl-L-cysteine (Sigma-Aldrich, cat. A9165), 10 mM nicotinamide (Sigma-Aldrich, cat. N0636), 1X B-27 supplement (Thermo Fisher Scientific, cat. 17504044), 1X N-2 supplement (Thermo Fisher Scientific, cat. 17502048), and 10 microM Y-27632 dihydrochloride (Tocris Bioscience, cat. 1254). The 876862-298-R-J1-PDC was cultured in 6E media, which includes all 6B/Colon 1A media components plus 50% L-WRN conditioned media (ATCC, cat. CRL-3276), 50 ng/mL recombinant human EGF recombinant protein (hEGF; Thermo Fisher Scientific, cat. PHG0311), 10 ng/mL recombinant human fibroblast growth factor 10 (hGFG-10; PeproTech, cat. 100-26), 1 ng/mL recombinant human fibroblast growth factor 2 (hFGF-2; PeproTech, cat. 100-18B), and 1 µM prostaglandin E2 (PGE2; Tocris, cat. 2296). The 227483-062-R1-J1-PDC line was cultured in Panc media, containing all 6E components except hFGF-2, with the addition of 500 nM SB-431542 (Selleckchem, cat. S1067) and 10 nM gastrin (Tocris, cat. 3006). […]

[1] = second compound 0.0316 µM, first compound 0.00316 µM
[2] = second compound 0.0316 µM, first compound 0.01 µM
[3] = second compound 0.0316 µM, first compound 0.0316 µM
[4] = second compound 0.0316 µM, first compound 0.1 µM
[5] = second compound 0.0316 µM, first compound 0.316 µM
[6] = second compound 0.0316 µM, first compound 1 µM
[7] = second compound 0.1 µM, first compound 0.00316 µM
[8] = second compound 0.1 µM, first compound 0.01 µM
[9] = second compound 0.1 µM, first compound 0.0316 µM
[10] = second compound 0.1 µM, first compound 0.1 µM
[11] = second compound 0.1 µM, first compound 0.316 µM
[12] = second compound 0.1 µM, first compound 1 µM
[13] = second compound 0.316 µM, first compound 0.00316 µM
[14] = second compound 0.316 µM, first compound 0.01 µM
[15] = second compound 0.316 µM, first compound 0.0316 µM
[16] = second compound 0.316 µM, first compound 0.1 µM
[17] = second compound 0.316 µM, first compound 0.316 µM
[18] = second compound 0.316 µM, first compound 1 µM
[19] = second compound 1 µM, first compound 0.00316 µM
[20] = second compound 1 µM, first compound 0.01 µM
[21] = second compound 1 µM, first compound 0.0316 µM
[22] = second compound 1 µM, first compound 0.1 µM
[23] = second compound 1 µM, first compound 0.316 µM
[24] = second compound 1 µM, first compound 1 µM
[25] = second compound 3.16 µM, first compound 0.00316 µM
[26] = second compound 3.16 µM, first compound 0.01 µM
[27] = second compound 3.16 µM, first compound 0.0316 µM
[28] = second compound 3.16 µM, first compound 0.1 µM
[29] = second compound 3.16 µM, first compound 0.316 µM
[30] = second compound 3.16 µM, first compound 1 µM
[31] = second compound 10 µM, first compound 0.00316 µM
[32] = second compound 10 µM, first compound 0.01 µM
[33] = second compound 10 µM, first compound 0.0316 µM
[34] = second compound 10 µM, first compound 0.1 µM
[35] = second compound 10 µM, first compound 0.316 µM
[36] = second compound 10 µM, first compound 1 µM
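Also: compound exposure lasted seven days before readout.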
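For viability, T/C in this document: 100% = DMSO vehicle control wells.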

For `CCN1CCN(Cc2ccc(Nc3ncc(F)c(-c4cc(F)c5nc(C)n(C(C)C)c5c4)n3)nc2)CC1` + CN1CCN(c2cc(C(=O)Nc3cc4cc(-c5cnn(C)c5)ccc4cn3)ccn2)CC1, the IC50 (second compound 0.0316 µM) was > 1000 nM, the IC50 (second compound 0.1 µM) was > 1000 nM and the IC50 (second compound 0.316 µM) was < 3.16 nM. The IC50 (second compound 1 µM) was < 3.16 nM, the IC50 (second compound 3.16 µM) was < 3.16 nM and the IC50 (second compound 10 µM) was < 3.16 nM. It also gave a viability, T/C [1] of 85.5%, a viability, T/C [2] of 79.4% and a viability, T/C [3] of 95.7%. It also gave a viability, T/C [4] of 103%, a viability, T/C [5] of 99% and a viability, T/C [6] of 102%. For the same compound, the viability, T/C [7] was 78.9%, the viability, T/C [8] was 100% and the viability, T/C [9] was 91.4%. For the same compound, the viability, T/C [10] was 79.5%, the viability, T/C [11] was 71.9% and the viability, T/C [12] was 69.3%. It also gave a viability, T/C [13] of 25.5%, a viability, T/C [14] of 32.6% and a viability, T/C [15] of 28.9%. For the same compound, the viability, T/C [16] was 29.9%, the viability, T/C [17] was 36.8% and the viability, T/C [18] was 31.8%. It also gave a viability, T/C [19] of 0.99%, a viability, T/C [20] of 0.98% and a viability, T/C [21] of 0.48%. It also gave a viability, T/C [22] of 0.4%, a viability, T/C [23] of 1.43% and a viability, T/C [24] of 1.19%. For the same compound, the viability, T/C [25] was 2.53%, the viability, T/C [26] was 1.22% and the viability, T/C [27] was 0.9%. For the same compound, the viability, T/C [28] was 1.58%, the viability, T/C [29] was 1.39% and the viability, T/C [30] was 2.07%. For the same compound, the viability, T/C [31] was 0.79%, the viability, T/C [32] was 0.62% and the viability, T/C [33] was 1.4%. For the same compound, the viability, T/C [34] was 1.82%, the viability, T/C [35] was 0.83% and the viability, T/C [36] was 0.55%.

For `COc1c(OCCCN2CCOCC2)ccc2c3n(c(=NC(=O)c4cnc(N)nc4)nc12)CCN3` + CN1CCN(c2cc(C(=O)Nc3cc4cc(-c5cnn(C)c5)ccc4cn3)ccn2)CC1, the IC50 (second compound 0.0316 µM) was 27 nM, the IC50 (second compound 0.1 µM) was 7.37 nM and the IC50 (second compound 0.316 µM) was < 3.16 nM. For the same compound, the IC50 (second compound 1 µM) was < 3.16 nM, the IC50 (second compound 3.16 µM) was < 3.16 nM and the IC50 (second compound 10 µM) was < 3.16 nM. The viability, T/C [1] was 93.9%, the viability, T/C [2] was 69% and the viability, T/C [3] was 50%. It also gave a viability, T/C [4] of 25.4%, a viability, T/C [5] of 14.8% and a viability, T/C [6] of 12.5%. The viability, T/C [7] was 68.3%, the viability, T/C [8] was 43% and the viability, T/C [9] was 21.3%. For the same compound, the viability, T/C [10] was 7.94%, the viability, T/C [11] was 6.07% and the viability, T/C [12] was 5.15%. For the same compound, the viability, T/C [13] was 20%, the viability, T/C [14] was 11.7% and the viability, T/C [15] was 3.4%. For the same compound, the viability, T/C [16] was 1.12%, the viability, T/C [17] was 1.11% and the viability, T/C [18] was 0.75%. It also gave a viability, T/C [19] of 2.09%, a viability, T/C [20] of 0.39% and a viability, T/C [21] of 0.99%. It also gave a viability, T/C [22] of 0.18%, a viability, T/C [23] of 0.78% and a viability, T/C [24] of 0.88%. The viability, T/C [25] was 2.33%, the viability, T/C [26] was 1.2% and the viability, T/C [27] was 1.43%. It also gave a viability, T/C [28] of 0.42%, a viability, T/C [29] of 0.95% and a viability, T/C [30] of 0.47%. For the same compound, the viability, T/C [31] was 0.65%, the viability, T/C [32] was 0.74% and the viability, T/C [33] was 0.78%. It also gave a viability, T/C [34] of 0.76%, a viability, T/C [35] of 1.19% and a viability, T/C [36] of 0.45%.
